Measurements published in patent US8952060B2, “Composition for preventing hair loss or for stimulating hair growth” (Amorepacific Corporation, priority 2009, dated 2015).

Columns and labels:
Format in all cases: in vivo
[1] = tested on: hair growth at depilated back portions of mice (C57BL/6); experiment: Hair growth and hair weight after oral administration in depilated mice; details: for hair growth as compared to the control (FIG. 2): 0.2 g/kg everyday for 5 weeks
Description: According to one embodiment, sodium valproate is administered orally to subjects and then tested for its effect for promoting hair growth. Seven week aged female mice (C57BL/6) are subjected to depilation at their back portions. Next, valproic acid is administered orally to mice of each test group everyday for 5 weeks. The control (mixed solution of distilled water, 1% methyl cellulose and 0.5% Tween 80™) and sodium valproate each are administered in a unit dose of 0.2 g/kg. After the administration, hair growth is observed at an interval of one week. After 5 weeks, hair weight after the depilation is measured.

[2] = tested on: hair growth at depilated back portions of mice (C57BL/6); experiment: Hair growth and hair weight after skin application in depilated mice
Description: According to one embodiment, sodium valproate is administered to subjects via external application to the skin and then tested for its effect for promoting hair growth. Seven week aged female mice (C57BL/6) are subjected to depilation at their back portions. Next, 7.2% sodium valproate is applied to the depilated back portions of mice of each test group twice per day. As a control, a mixed solution of propylene glycol/ethanol/water (5:3:2) is used. After the skin application, hair growth is observed at an interval of one week. After 6 weeks, hair weight after the depilation is measured.

[3] = tested on: hair growth at depilated back portions of mice (C57BL/6); experiment: Hair growth after subcutaneous injection in depilated mice; details: 3% solution, subcutaneous injection 50 μL every 3-4 days, seven times
Description: According to one embodiment, sodium valproate (VPA) is administered to subjects via subcutaneous injection and then tested for its effect for promoting hair growth. Seven week aged female mice (C57BL/6) are subjected to depilation at their back portions. Next, 3% sodium valproate solution is administered via subcutaneous injection to the left side of each depilated back portion in a unit dose of 50 μL at an interval of 3-4 days seven times in total. Then, the degree of hair growth is observed 1, 16 and 30 days after starting the test. In the test of FIG. 1, sodium valproate is injected subcutaneously to the left portion (marked by a circle) of the back of each mouse.

SMILES | hair growth as compared to the control (FIG. 2) [1] | hair weight (FIG. 3) ([1]; 0.2 g/kg everyday, after 5 weeks, control about 85 mg) | hair growth as compared to the control (FIG. 4) ([2]; 7.2% skin application twice per day) | hair weight (FIG. 5) ([2]; 7.2% skin application twice per day, after 6 weeks, control about 35 mg) | degree of hair growth as compared to the control (FIG. 1) ([3]; after 16 days, control = right side of back) | formation of new hair follicles (FIG. 1) ([3]; after 30 days) | hair growth, summary statement ([2]; transdermal administration (subcutaneous injection or skin application))
CCCC(CCC)C(=O)[O-].[Na+] [sodium valproate] | delays hair growth | 65 mg | promotes hair growth | ≥ 80 mg | hair growth is promoted | new hair follicles are formed | –
CCCC(CCC)C(=O)O [valproic acid, 2-propylpentanoic acid] | inhibits hair growth | – | – | – | – | – | promotes hair growth
